From patent US10520493B2, “Method for assessment of neural function by establishing analysis module” (NATIONAL CHENG KUNG UNIVERSITY, priority 2015, dated 2019)

Test system: primarily cultured cortical neurons
Experiment: High-content image analysis of the effect of chemotherapy drugs on primarily cultured neurons (neuron number, synaptic puncta number, neurite length)
Conditions: cells cultured for 10 days, drug added for 24 hours, FIG. 7-9; for neurotoxicity (effect on the neuron number, the synaptic puncta number and the neurite length): MAP2/synaptophysin/Hoechst staining
Experimental: To analyze neural function accurately, MetaXpress 3.1 software (“MetaXpress® Image Acquisition and Analysis Software (Analysis Guide)” was used on the website ftp://ftp.meta.moleculardevices.com/pub/uic/software/MX31R13/HelpDocs/MetaXpress/MetaXpress_3_1_Analysis_Guide.pdf) to design an analysis module. An automatic analysis was performed according to the following optimal indicators (a)˜(c) for image analysis with 32 steps.
The cultured cells including neurons and glial cells were firstly separated according to the area and the fluorescence intensity of the nucleus stained by Hoechst dye together with MAP2 antibody.
After neurons stained with MAP2 were selected, the area of neuronal cell body, the length and the number of processes and branches of the neurites were calculated to verify outgrowth of the neurites.
Numbers of synaptic puncta of the neurons were calculated according to the area of the neurites labeled with fluorescence mentioned above to verify formation of the synaptic puncta of the neurons.
Cerebral cortex was obtained from 0˜1 day old B6 mice pup and meninges were removed. DMEM/F12 medium without serum was used to triturate the cortex tissue. Then, the DMEM/F12 medium without serum was refilled to 5 mL, mixed evenly with 0.5 mL trypsin, and placed at 37° C. for 5 minutes. Then the mixture with 1 mL FBS was filtered through a cell strainer. After a centrifugation at 3,000 rpm for 10 min, the supernatant was removed and precipitated cells were added to a medium required for nerve cell culture. The medium was prepared by adding B-27® Supplement, 0.5 mM L-glutamine, and 0.5% penicillin streptomycin to Neurobasal® A medium.
(2) Black multi-well microplates with clear bottom were used for nerve cell culture. Each well was coated with 70 μL poly-D-lysine or poly-L-lysine. Cells were seeded in a density of 2.8×10^4/well. After cells were cultured for 10 days, chemotherapy drugs listed in the table 1 was respectively added to react with cells for 24 hours. Then cells were fixed with 4% polyformaldehyde for 10 min and washed with PBS twice for 5 min each. Then, each well was added with 1 M glycine reacting for 10 min and wash with PBS twice for 5 min each. After cells were added with 0.05% Triton X-100 reacting for 20 min and washed with PBS twice for 5 min each, cell were blocked with 4% BSA for 1 hour and then stained with primary antibodies including anti-MAP2 antibody (MyBioSource; MBS502140) and anti-synaptophysin antibody (Abcam; ab32127) for 12-16 hours. Next, cells were washed twice with PBST (10 min each) and incubated with fluorescence-conjugated secondary antibodies including Alexa Fluor 488 (Jackson ImmunoResearch; 703-546-155) and Alexa Fluor 647 (molecular probes; A31573) and Hoechst 33258 for 1 hour. At last, cells were washed twice with PBST (10 min each) and added with PBS for further image acquisition and analysis.
(3) Fluorescence microscopy system and method mentioned in the above embodiment were used to capture images at the wavelength of DAPI, FITC, and Cy5 for image analysis of the cultured cells. The images were enlarged 200 times (200×) and saved automatically after the shooting for analysis.

Nc1ccn([C@@H]2O[C@H](CO)[C@@H](O)C2(F)F)c(=O)n1 [Gemcitabine]
neurotoxicity (effect on the neuron number, the synaptic puncta number and the neurite length): less neurotoxicity

N.N.O=C([O-])C1(C(=O)[O-])CCC1.[Pt+2] [carboplatin, Carboplatin]
neurotoxicity compared with cisplatin (compared with cisplatin): less neurotoxicity

COc1cccc2c1C(=O)c1c(O)c3c(c(O)c1C2=O)C[C@@](O)(C(=O)CO)C[C@@H]3O[C@H]1C[C@H](N)[C@H](O)[C@H](C)O1 [doxorubicin, Doxorubicin]
neurotoxicity (effect on the neuron number, the synaptic puncta number and the neurite length): less neurotoxicity

CC(=O)O[C@H]1C(=O)[C@@]2(C)[C@H]([C@H](OC(=O)c3ccccc3)[C@]3(O)C[C@H](OC(=O)[C@H](O)[C@@H](NC(=O)c4ccccc4)c4ccccc4)C(C)=C1C3(C)C)[C@]1(OC(C)=O)CO[C@@H]1C[C@@H]2O [paclitaxel, Paclitaxel]
neurotoxicity (effect on the neuron number, the synaptic puncta number and the neurite length): severe neurotoxicity

CC[C@]1(O)C[C@H]2CN(CCc3c([nH]c4ccccc34)[C@@](C(=O)OC)(c3cc4c(cc3OC)N(C=O)[C@H]3[C@@](O)(C(=O)OC)[C@H](OC(C)=O)[C@]5(CC)C=CCN6CC[C@]43[C@@H]65)C2)C1 [vincristine, Vincristine]
neurotoxicity (effect on the neuron number, the synaptic puncta number and the neurite length): severe neurotoxicity
